Results from PubChem BioAssay (NCI).
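The compound was tested at five concentrations on cells cultured in 96-well plates, with a 48-hour exposure period. GI50 is the concentration that inhibits growth by half. The concentration for full growth arrest is given as TGI.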

Experiments:
Test in all cases: inhibition of tumour cell growth, NCI panel, 48 h; in the data active = GI50 below about 0.43 µM; inactive = the rest
SR leukemia = test system: SR leukemia
SK-MEL-5 melanoma = test system: SK-MEL-5 melanoma
NCI/ADR-RES ovarian = test system: NCI/ADR-RES ovarian
M14 melanoma = test system: M14 melanoma
RPMI-8226 leukemia = test system: RPMI-8226 leukemia
SF-295 CNS = test system: SF-295 CNS
SF-268 CNS = test system: SF-268 CNS
SK-MEL-28 melanoma = test system: SK-MEL-28 melanoma
RXF 393 renal = test system: RXF 393 renal

CCOC(=O)c1c(Cl)c2c(n1Cc1ccccc1)-c1oncc1CCC2
> 100 µM: TGI (SK-MEL-5 melanoma) | TGI (NCI/ADR-RES ovarian) | TGI (M14 melanoma) | TGI (RPMI-8226 leukemia) | TGI (SF-295 CNS) | TGI (SF-268 CNS)
8.24 µM: TGI (SR leukemia)
inactive: GI50 (SR leukemia) 1.8 µM | GI50 (SK-MEL-5 melanoma) 3.53 µM | GI50 (NCI/ADR-RES ovarian) 2.83 µM | GI50 (M14 melanoma) 3.78 µM | GI50 (RPMI-8226 leukemia) 3.27 µM | GI50 (SF-295 CNS) > 100 µM | GI50 (SF-268 CNS) > 100 µM

Nc1nccc(NCC2(CO)CC(CCc3ccccc3)C2)n1 (stereo not drawn)
36.5 µM: TGI (SK-MEL-28 melanoma)
52.6 µM: TGI (SR leukemia)
16.9 µM: TGI (SK-MEL-5 melanoma)
51 µM: TGI (RPMI-8226 leukemia)
75.7 µM: TGI (NCI/ADR-RES ovarian)
36 µM: TGI (RXF 393 renal)
26.4 µM: TGI (SF-295 CNS)

CCOC(=O)c1c(C)n(-c2ccc(C)cc2)c(=O)c2ccccc2c(=O)c2c(=O)ccc(=O)c1=2
30.4 µM: TGI (SK-MEL-5 melanoma)
54.2 µM: TGI (SF-268 CNS)
58.4 µM: TGI (NCI/ADR-RES ovarian)
41.3 µM: TGI (RXF 393 renal)
42.9 µM: TGI (M14 melanoma)
24.9 µM: TGI (RPMI-8226 leukemia)
27.1 µM: TGI (SK-MEL-28 melanoma)

COc1ccc(OC/C(N)=N/NC(=O)c2ccncc2)cc1
> 100 µM: TGI (NCI/ADR-RES ovarian) | TGI (SK-MEL-28 melanoma) | TGI (M14 melanoma) | TGI (RPMI-8226 leukemia) | TGI (SF-295 CNS) | TGI (RXF 393 renal) | TGI (SF-268 CNS)

NC(Cc1cc(I)c(Oc2ccc(O)c(I)c2)c(I)c1)C(=O)O (stereo not drawn)
> 100 µM: TGI (SK-MEL-5 melanoma) | TGI (NCI/ADR-RES ovarian) | TGI (SK-MEL-28 melanoma) | TGI (M14 melanoma) | TGI (SF-295 CNS) | TGI (RXF 393 renal) | TGI (SF-268 CNS)
84 µM: TGI (RPMI-8226 leukemia)

CN(CC(=O)Nc1ccccc1C(=O)O)c1ccccc1
> 100 µM: TGI (SR leukemia) | TGI (SK-MEL-5 melanoma) | TGI (SK-MEL-28 melanoma) | TGI (M14 melanoma) | TGI (RPMI-8226 leukemia) | TGI (SF-295 CNS) | TGI (RXF 393 renal) | TGI (SF-268 CNS)

COC(=O)C(C)NP(=O)(OCc1cccc(Cn2cnc3c(N)ncnc32)c1)Oc1ccccc1 (stereo not drawn)
inactive: GI50 (SR leukemia) 55.4 µM | GI50 (SK-MEL-5 melanoma) 54.1 µM | GI50 (NCI/ADR-RES ovarian) > 100 µM | GI50 (SK-MEL-28 melanoma) > 100 µM | GI50 (RPMI-8226 leukemia) > 100 µM | GI50 (SF-295 CNS) > 100 µM | GI50 (RXF 393 renal) 27.8 µM | GI50 (SF-268 CNS) 58.4 µM
> 100 µM: TGI (SR leukemia) | TGI (SK-MEL-5 melanoma) | TGI (NCI/ADR-RES ovarian) | TGI (SK-MEL-28 melanoma) | TGI (RPMI-8226 leukemia) | TGI (SF-295 CNS) | TGI (RXF 393 renal) | TGI (SF-268 CNS)

C(=C\c1cc[n+](CCc2ccccc2)cc1)/c1ccccc1
74.5 µM: TGI (SF-268 CNS)
31.5 µM: TGI (M14 melanoma)
26.8 µM: TGI (SK-MEL-28 melanoma)
5.73 µM: TGI (SK-MEL-5 melanoma)
> 100 µM: TGI (NCI/ADR-RES ovarian) | TGI (SF-295 CNS) | TGI (RXF 393 renal)
53.2 µM: TGI (RPMI-8226 leukemia)

Cc1nn(C(=O)Cc2ccccc2)c2c1C(c1ccc(/C=C/c3ccccc3)cc1)SC(N)=N2 (stereo not drawn)
> 100 µM: TGI (SK-MEL-5 melanoma) | TGI (SK-MEL-28 melanoma) | TGI (M14 melanoma) | TGI (RPMI-8226 leukemia) | TGI (SF-295 CNS) | TGI (SF-268 CNS)

Cc1csc(=Nc2ccccc2)n1CCC(O)(P(=O)(O)O)P(=O)(O)O
> 100 µM: TGI (SK-MEL-5 melanoma) | TGI (NCI/ADR-RES ovarian) | TGI (M14 melanoma) | TGI (SF-295 CNS) | TGI (RXF 393 renal) | TGI (SF-268 CNS)

CC(C)(C)OC(=O)CC(NC(=O)OCc1ccccc1)NC(=O)OC(C)(C)C (stereo not drawn)
67.7 µg/mL: TGI (SR leukemia)
inactive: GI50 (SR leukemia) 27.8 µg/mL | GI50 (NCI/ADR-RES ovarian) 33.5 µg/mL | GI50 (SK-MEL-28 melanoma) 67.6 µg/mL | GI50 (M14 melanoma) 56.8 µg/mL | GI50 (RPMI-8226 leukemia) 32.8 µg/mL | GI50 (SF-295 CNS) 46.2 µg/mL | GI50 (SF-268 CNS) 87.1 µg/mL

COC(=O)C1(CCCCl)CCCN1C(=O)OC(C)(C)C (stereo not drawn)
> 100 µM: TGI (SR leukemia) | TGI (SK-MEL-5 melanoma) | TGI (NCI/ADR-RES ovarian) | TGI (SK-MEL-28 melanoma) | TGI (SF-295 CNS) | TGI (RXF 393 renal) | TGI (SF-268 CNS)

O=C(c1c(F)c(F)c(F)c(F)c1F)n1c(=S)n(C(=O)c2c(F)c(F)c(F)c(F)c2F)c2ccccc21
> 100 µM: TGI (SR leukemia) | TGI (SK-MEL-5 melanoma) | TGI (SK-MEL-28 melanoma) | TGI (M14 melanoma) | TGI (RPMI-8226 leukemia) | TGI (SF-295 CNS) | TGI (SF-268 CNS)

COC(=O)c1c(C)cccc1C1CN=NC12Cc1cc(C)c(C)cc1C2=O (stereo not drawn)
> 100 µM: TGI (NCI/ADR-RES ovarian) | TGI (SK-MEL-28 melanoma) | TGI (M14 melanoma) | TGI (SF-295 CNS) | TGI (RXF 393 renal) | TGI (SF-268 CNS)
46.3 µM: TGI (SK-MEL-5 melanoma)

Cc1cnc2[nH]c(-c3cccc4ccccc34)cc(=O)c2c1
0.0923 µM: TGI (RXF 393 renal)
28.2 µM: TGI (RPMI-8226 leukemia)
inactive: GI50 (SF-268 CNS) 6.51 µM
> 100 µM: TGI (SR leukemia) | TGI (NCI/ADR-RES ovarian) | TGI (SK-MEL-28 melanoma) | TGI (M14 melanoma) | TGI (SF-295 CNS) | TGI (SF-268 CNS)

Cc1cc2nnn(C3CCCCO3)c2cc1C (stereo not drawn)
> 100 µM: TGI (SR leukemia) | TGI (SK-MEL-5 melanoma) | TGI (NCI/ADR-RES ovarian) | TGI (M14 melanoma) | TGI (SF-295 CNS) | TGI (RXF 393 renal)

CCCCCCC1OC23OC1CCC2C(O)CCC3O (stereo not drawn)
> 100 µM: TGI (SR leukemia) | TGI (SK-MEL-5 melanoma) | TGI (NCI/ADR-RES ovarian) | TGI (SK-MEL-28 melanoma) | TGI (RPMI-8226 leukemia) | TGI (SF-295 CNS) | TGI (RXF 393 renal) | TGI (SF-268 CNS)

CCN(C(=O)N[C@@H](CC(C)C)C(=O)NCC(=O)OC)c1ccccc1
> 100 µM: TGI (SR leukemia) | TGI (SK-MEL-5 melanoma) | TGI (NCI/ADR-RES ovarian) | TGI (SK-MEL-28 melanoma) | TGI (M14 melanoma) | TGI (RPMI-8226 leukemia) | TGI (SF-295 CNS) | TGI (RXF 393 renal)

CCOC(=O)c1cn(-c2ccc([N+](=O)[O-])cc2)c(=S)n2c1nc1ccccc12
> 100 µM: TGI (SR leukemia) | TGI (SK-MEL-5 melanoma) | TGI (NCI/ADR-RES ovarian) | TGI (SK-MEL-28 melanoma) | TGI (M14 melanoma) | TGI (RPMI-8226 leukemia) | TGI (SF-295 CNS) | TGI (RXF 393 renal)

C(=NC12CC3CC(CC(C3)C1)C2)C1CCCCC1
> 100 µM: TGI (SR leukemia) | TGI (SK-MEL-5 melanoma) | TGI (NCI/ADR-RES ovarian) | TGI (M14 melanoma) | TGI (RPMI-8226 leukemia) | TGI (SF-295 CNS) | TGI (RXF 393 renal) | TGI (SF-268 CNS)

CCCN1C(=O)CN(S(=O)(=O)c2ccc(Cl)cc2)C1=O
> 100 µM: TGI (SR leukemia) | TGI (SK-MEL-5 melanoma) | TGI (SK-MEL-28 melanoma) | TGI (M14 melanoma) | TGI (RPMI-8226 leukemia) | TGI (SF-295 CNS) | TGI (RXF 393 renal) | TGI (SF-268 CNS)

COc1ccc(OC)c(/C=C2/C(=O)N=C(NC(C)=O)N2C)c1
> 100 µM: TGI (SK-MEL-5 melanoma) | TGI (NCI/ADR-RES ovarian) | TGI (SK-MEL-28 melanoma) | TGI (M14 melanoma) | TGI (SF-295 CNS) | TGI (RXF 393 renal) | TGI (SF-268 CNS)

O[C@@H]1[C@H](OC2c3ccccc3-c3ccccc32)[C@H](OCc2ccccc2)[C@@H]2OC[C@H]1O2
> 100 µM: TGI (SK-MEL-5 melanoma) | TGI (NCI/ADR-RES ovarian) | TGI (SK-MEL-28 melanoma) | TGI (M14 melanoma) | TGI (RPMI-8226 leukemia) | TGI (SF-295 CNS) | TGI (RXF 393 renal) | TGI (SF-268 CNS)

COc1cc(Nc2cc(Cl)cc(Cl)c2)nc(N)n1
56.5 µM: TGI (RPMI-8226 leukemia)
28.4 µM: TGI (RXF 393 renal)
29.7 µM: TGI (SK-MEL-5 melanoma)
42.1 µM: TGI (M14 melanoma)
41.3 µM: TGI (SF-268 CNS)
38.3 µM: TGI (SF-295 CNS)
45.4 µM: TGI (NCI/ADR-RES ovarian)
